From US20250276034A1, “RELEASE-CONTROLLED TOPICAL INJECTION COMPOSITION CONTAINING CYCLIC PEPTIDE AND PREPARATION METHOD THEREFOR” (ORIENTBIO INC., priority 2021, published 2025)
In brackets after ≈: the same amount, converted by molar mass.

Key:
[1] = Drug remaining at administration site, non-administration site and in blood after topical injection (LC/MS); format: in vivo, mice (C57BL/6)
Experimental: Specifically, the drug level in blood was determined by a liquid-liquid extraction method using methyl tert-butyl ether (MTBE) and LC/MS analysis. Preparation of skin samples at a targeted site and a non-administration site and the liquid-liquid-phase extraction method using MTBE were the same as in Experimental Example 9. […] After initially increasing the proportion of mobile phase B to 20% for 3 minutes to equilibrate the mobile phase, the flow rate of the mobile phase was 0.4 ml/min and the sample injection volume was 3 μl. In addition, as a mass spectrometer, a 4000 Q TRAP Mass Spectrometer system from Applied Bioscience was used.

[2] = Determination of crystallinity by X-ray diffraction (XRD); format: physicochemical; conditions: raw powder and after evaporation or drowning-out crystallization
Experimental: XRD measurement conditions and a crystallization method used in this experiment are as follows.
X-ray diffractometer (model name: MiniFlex, Rigaku, Tokyo, Japan/-X-ray generator: graphite monochromatized Cu Kα radiation (λ=1.5418 Å, 2θ range: from 10° to 30° with a step size of 0.02°/−Scanning rate: 1.0°/min)

[3] = Partition coefficient (log P); format: physicochemical
[4] = Determination of crystallinity by differential scanning calorimetry (DSC); format: physicochemical; conditions: raw powder, heating curves
Experimental: Differential scanning calorimetry (DSC) was used to identify a difference in crystallinity between cyclosporine A and OND-1 by determining the melting point, glass transition temperature, and recrystallization of the drugs. DSC measurement conditions were as follows.
DSC (model name: DSC Q2000; manufacturer: TA instruments; purging gas: N2 gas (flow: 70 mL/min); heating rate: 5° C./min; isothermal temperature: 10° C./min; cycle number: 1 (from 20° C. to 200° C.)

Solubility in water = format: physicochemical
[5] = In-vitro skin penetration and skin deposition (Franz diffusion cell); format: in vitro ADME; conditions: porcine skin, 200 μg OND-1 in 0.2 ml olive oil, 37° C.
Experimental: A percutaneous absorption diffusion test (Franz diffusion cell) was conducted to determine skin penetration of position 3-substituted cyclosporine derivatives by topical skin application.
Specifically, frozen porcine skin was thawed, followed by removal of subcutaneous fat from the dermis, and then the skin was cut into a disc shape with a diameter of 3 cm. Then, the skin was mounted in a skin permeation device (Franz diffusion, receptor volume: 5 ml, diffusion area: 0.785 cm^2) with the stratum corneum facing an upper donor chamber and the dermis facing a lower receptor chamber. […] Hourly, 500 μl of a receiving solution (PBS containing 0.2% Tween 80, pH: 7.4) was sampled, followed by replenishment with an equal volume of fresh one.
The position 3-substituted cyclosporine derivative in the sampled solution was subjected to quantitative analysis by HPLC, followed by calculation of the average value of five replicates to determine the permeation amount of the position 3-substituted cyclosporine derivative.
After 24 hours of use, the skin was removed from the skin permeation device, washed several times with ethanol, dried, and tape-stripped (10 times with scotch tape) to completely remove any residual drug from the surface thereof. The collected skin samples were lysed by incubation with collagenase type I (Gibco®) solution at 37° C. for 24 hours. Thereafter, samples were obtained by a liquid-liquid phase extraction method using methyl tert-butyl ether (MTBE), followed by quantitative analysis of the position 3-substituted cyclosporine derivative by HPLC to calculate the quantity of drug deposited in the skin.
Details of the liquid-liquid extraction method are as follows. A 200 μl to 400 μl aliquot of each of the lysed skin samples was dispensed, followed by addition of 1.2 ml of MTBE. After high-speed shaking for 10 minutes, an organic solvent layer (1 ml) was separated by centrifugation (13,000 rpm, 3 minutes) and then dried under nitrogen flow for 10 minutes. Thereafter, the organic solvent layer was dissolved with a reconstituted solvent (75% acetonitrile) and filtered through a syringe filter to obtain a sample for analysis.

Compound | Analysis of OND-1 level in systemic blood (μg/ml) ([1]; C57BL/6 mice, topical injection of depot solution containing particles of Example 1-B, individual test subjects 1-5) | Quantity of OND-1 remaining at non-administration site (μg/g) ([1]; C57BL/6 mice, topical injection of depot solution containing particles of Example 1-B, skin, individual test subjects 1-5) | OND-1 detected in the skin at the site of topical administration ([1]; mice, topical injection) | OND-1 detected in the surrounding skin or the systemic blood ([1]; mice, topical injection) | XRD pattern [2] | logP [3] | crystallinity by DSC [4] | solubility (Solubility in water) [µg/mL] | Penetration rate (μg/cm^2) ([5]; 6 hr) | Penetration rate (μg/cm^2) ([5]; 14 hr) | Penetration rate (μg/cm^2) ([5]; 20 hr) | Penetration rate (μg/cm^2) ([5]; 24 hr)
C/C=C/C[C@@H](C)[C@@H](O)[C@H]1C(=O)N[C@@H](CC)C(=O)N(C)[C@H](SC)C(=O)N(C)[C@@H](CC(C)C)C(=O)N[C@@H](C(C)C)C(=O)N(C)[C@@H](CC(C)C)C(=O)N[C@@H](C)C(=O)N[C@H](C)C(=O)N(C)[C@@H](CC(C)C)C(=O)N(C)[C@@H](CC(C)C)C(=O)N(C)[C@@H](C(C)C)C(=O)N1C [OND-1, [D-2-methylthio-Sar^3]cyclosporine A] | Not detected | Not detected | highly detected | rarely detected | amorphous XRD pattern | 3.84 | amorphous | 10 (≈ 8.01 µM) | 1.3 | 1.1 | 0.2 | 1.1
Cyclosporine A [CsA, reference compound] |  |  |  |  | crystalline XRD pattern |  | crystalline |  |  |  |  | 
